In patent publication US5461046A, “1-,2-,3-,4-,5-,6-,7-,8-, and/or 9-substituted dibenzoxazepine compounds, pharmaceutical compositions and methods for treating pain” (G. D. Searle & Co., priority 1993, dated 1995):
Read-outs that look alike come from different tables or passages of the source.

Tested on: phenylbenzoquinone (PBQ)-induced writhing in mice
Assay: Writhing Assay (phenylbenzoquinone-induced writhing, analgesia)
Assay type: in vivo, Charles River male albino mice
Details: Mus musculus, 25 min, 25 min before PBQ i.p., number of mice out of ten with analgesia
Text: The Writhing Assay is one of the most widely-used experimental procedures for measuring the analgesic activity of different narcotic and nonnarcotic analgesic agents, and involves the continuous, chemically-induced pain of visceral origin to an animal, such as a mouse or rat. [Gyires et al., Arch. int. Pharmacodyn, 267, 131-140 (1984); C. Vander Wende et al., Fed. Proc., 15, 494 (1956); Koster et al., Fed. Proc., 18, 412 (1959); and Witken et al., J. Pharmacol. exp. Ther., 133, 400-408 (1961).] Chemicals which may be used to induce this pain include phenylbenzoquinone (PBQ) and acetic acid. As a result of the chemical irritation to the animal, a characteristic stretching and writhing of the animal (dorsiflexion of the animal's back, extension of its hindlimbs and the strong contraction of its abdominal musculature) will generally occur. […] Drugs which reduce the number of writhes of the animal appear to restore the normal nociceptive threshold of the animal.
Charles River male albino mice, weighing 20 to 30 grams were used in this assay.
Twenty-five minutes after subcutaneous or intragastric administration to ten mice of 30 mg per kilogram of body weight of a compound of the present invention ("test compound"), […] per 10 g of body weight of a 0.025% w/v solution of PBQ was injected intraperitoneally into each mouse. Ten mice which were given saline in place of a test compound of the invention were used as a control group.
Five minutes later, each mouse was individually placed into a glass beaker for observation, and the number of writhes occurring during the following ten-minute period was counted.
A test compound was considered to have produced analgesia in a mouse if, in accordance with the conditions set forth above, and under the test criteria employed for this assay, after the administration of 30 mg per kilogram of body weight of a compound of the present invention to the mouse, the number of writhes elicited by a mouse injected with PBQ was equal to, or less than, one-half the median number of writhes recorded for the saline-treated control group of mice that day, as described by Taber in "Predictive Value of Analgesic Assays in Mice and Rats," Advances in Biochemical Psychopharmacology, 8, 191 (1974).
The results for the particular compounds of the present invention analyzed in this assay, and discussed in the examples identified below which correspond thereto, are presented in Table 2 hereinbelow under the heading "WRITHING ASSAY." The fractions indicate the number of mice out of ten in which a test compound produced analgesia.

[1] = ip, 30 mg per kg i.g., read-out: WRITHING ASSAY Number Out of Ten I.G. (converted)
[2] = sc, 30 mg per kg s.c., read-out: WRITHING ASSAY Number Out of Ten S.C.

Row | SMILES | responders at 30 mg/kg [1] [%] | responders at 30 mg/kg [2] [%]
1 | CCS(=O)(=O)CCC(=O)NNC(=O)N1Cc2ccccc2Oc2ccc(C(=O)O)cc21 [Example 4, Dibenz[b,f][1,4]oxazepine-8,10(11H)-dicarboxylic acid, 10-[2-[3-(ethylsulfonyl)-1-oxopropyl]hydrazide]] | 30 | 40
2 | CCS(=O)(=O)CCC(=O)NNC(=O)N1Cc2ccccc2Oc2ccc(F)cc21 [Example 7, 8-fluorodibenz[b,f][1,4]oxazepine-10(11H)-carboxylic acid, 2-[3-(ethylsulfonyl)-1-oxopropyl]hydrazide] | 40 | 60
3 | CCS(=O)(=O)CCC(=O)NNC(=O)N1Cc2cc(Cl)ccc2Oc2ccccc21 [Example 8, 2-chlorodibenz[b,f][1,4]oxazepine-10(11H)-carboxylic acid, 2-[3-(ethylsulfonyl)-1-oxopropyl]hydrazide] | 60 | 60
4 | CCS(=O)(=O)CCC(=O)NNC(=O)N1Cc2ccccc2Oc2ccc(C#N)cc21 [Example 11, 8-cyanodibenz[b,f][1,4]oxazepine-10(11H)-carboxylic acid, 2-[3-(ethylsulfonyl)-1-oxopropyl]hydrazide] | 55.6 | 50
5 | CCS(=O)(=O)CCC(=O)NNC(=O)N1Cc2ccccc2Oc2ccc(NS(C)(=O)=O)cc21 [Example 14, 8-[(methylsulfonyl)amino]dibenz[b,f][1,4]-oxazepine-10(11H)-carboxylic acid, 2-[3-(ethylsulfonyl)-1-oxopropyl]hydrazide] | 60 | 60
6 | CCS(=O)(=O)CCC(=O)NNC(=O)N1Cc2ccccc2Sc2ccc(Cl)cc21 [Example 22, 8-chloro-10,11-dihydrodibenzo[b,f][1,4]thiazepine-10-(11H) carboxylic acid, 2-[3-(ethysulfonyl)-1-oxopropyl]hydrazide] | 60 | 30
7 | CCS(=O)(=O)CCC(=O)NNC(=O)N1Cc2ccccc2S(=O)(=O)c2ccc(Cl)cc21 [Example 23, 8-chloro-10,11-dihydrodibenzo[b,f][1,4]thiazepine-10(11H) carboxylic acid, 2-[3-(ethylsulfonyl)-1-oxopropyl]hydrazide, 5,5-dioxide] | 30 | 70
